Numbers after ± are expanded uncertainties.
Assays:
[1] = Molar enthalpy of transition or fusion; settings: Crystal; DSC
[2] = Crystal; DSC

SMILES	Molar enthalpy of transition or fusion [1]	Triple point temperature [2]
c1ccc2cc3cc4ccccc4cc3cc2c1 [2,3-benzanthracene]	8.94 ± 0.908 kcal/mol	623.75 ± 1.2 K
c1ccc(N(c2ccc(-c3ccc(N(c4ccccc4)c4cccc5ccccc45)cc3)cc2)c2cccc3ccccc23)cc1 [N,N'-di(1-naphthyl)-N,N'-diphenyl benzidine]	14.1 ± 1.43 kcal/mol	551.75 ± 1.2 K
